Reference: EPA's ToxValDB 9.5 (doi:10.2903/j.efsa.2005.15r)
≈ marks a conversion by molar mass, not a printed value.

Legend:
Aphidius rhopalosiphi = conditions: not reported; mortality
Apis mellifera = conditions: acute, duration: 48 hours, mortality
Bird = conditions: acute; oral; unspecified; mortality
Oryctolagus sp. = conditions: reproduction developmental; mortality
Typhlodromus pyri = conditions: not reported; mortality
[1] = chronic/long-term, duration: 21 days

COC(=O)c1ccccc1S(=O)(=O)NC(=O)N(C)c1nc(C)nc(OC)n1 [Tribenuron-methyl]
NOAEL (Anas platyrhynchos; reproductive): 21 mg/kg-day | LC50 (Anas platyrhynchos; short-term, oral, feed, mortality): > 974 mg/kg-day | LEL (Aphidius rhopalosiphi): 30 g/ha | LD50 (Apis mellifera; dermal): > 98.4 µg/piece | LD50 (Apis mellifera; oral, unspecified): > 9.1 µg/piece | LD50 (Bird): > 2250 mg/kg | LC50 (Daphnia magna; acute, duration: 48 hours, mortality): > 894 µg/mL | NOEC (Daphnia magna; [1]): 120 mg/L | LC50 (Oncorhynchus mykiss; acute, duration: 96 hours, mortality): 738 µg/mL (≈ 1870 µM) | NOEC (Oncorhynchus mykiss; [1]): 560 mg/L | NOAEL (Oryctolagus sp.): 20 mg/kg-day | LD50 (Rattus norvegicus; acute, oral, mortality): > 5000 mg/kg | NOAEL (Rattus norvegicus; chronic, duration: 2 years, body weight): 1 mg/kg-day | NOAEL (Rattus norvegicus; reproduction developmental, reproduction): 19 mg/kg-day | NOAEL (Rattus norvegicus; subchronic, duration: 90 days, oral, body weight): 7 mg/kg-day | LEL (Typhlodromus pyri): 30 g/ha
